Source: publication PMC10035370, “Targeting Tumor Angiogenesis with the Selective VEGFR-3 Inhibitor EVT801 in Combination with Cancer Immunotherapy” (Cancer Research Communications, 2022)

Assays:
[1] = Blood pressure in telemetered rat model of hypertension; assay type: in vivo; settings: dose as high as 500 mg/kg, single oral administration
Experimental: Supplementary Figure 8. EVT801 and sorafenib show opposing effects on blood pressure in rats. (A) Monitoring of the blood pressure over 24 h after single oral administration of 100 mg/kg EVT801 or 500 mg/kg of EVT801, compared to animals treated with vehicle. (B) Monitoring of the blood pressure over 24 h after single oral administration of 10 mg/kg sorafenib, 30 mg/kg sorafenib or 100 mg/kg of sorafenib, compared to animals treated with vehicle.

Rip1-Tag2 tumors = test: Rip1-Tag2 transgenic mouse model; assay type: in vivo, mice
Experimental: The Rip1-Tag2/transgenic mouse models were used as reported previously ([29]). Briefly, treatment of mice started at the age of 12 weeks. Mice were treated daily for 16 days, and volume of each tumor was measured and calculated as described for the 4T1 mammary carcinoma mouse model below. The tumor burden was calculated as the sum of individual tumor volumes for each mouse. For the survival study, daily treatment started at the age of 12 weeks, and mice were monitored daily to detect moribund mice for euthanasia. CD31-positive vessel density within the tumors were quantified by density index (1 vessel/mm^2) measured using the Definiens software. Individual density indices were plotted as the mean ± SD for each group. Statistical significance was assessed by Kruskall–Wallis followed by Dunnet multiple comparison test.

VEGFR-2 = VEGFR-2 (Homo sapiens, UniProt P35968); test: Cellular autophosphorylation assay, HEK293 cells transiently expressing VEGFR-2; assay type: cell-based; design: expressed in transfected cells; host or cells: HEK293T; settings: read-out: IC50 in cellular assays, VEGFR-2 autophosphorylation
Sequence of VEGFR-2 (P35968 20-1356): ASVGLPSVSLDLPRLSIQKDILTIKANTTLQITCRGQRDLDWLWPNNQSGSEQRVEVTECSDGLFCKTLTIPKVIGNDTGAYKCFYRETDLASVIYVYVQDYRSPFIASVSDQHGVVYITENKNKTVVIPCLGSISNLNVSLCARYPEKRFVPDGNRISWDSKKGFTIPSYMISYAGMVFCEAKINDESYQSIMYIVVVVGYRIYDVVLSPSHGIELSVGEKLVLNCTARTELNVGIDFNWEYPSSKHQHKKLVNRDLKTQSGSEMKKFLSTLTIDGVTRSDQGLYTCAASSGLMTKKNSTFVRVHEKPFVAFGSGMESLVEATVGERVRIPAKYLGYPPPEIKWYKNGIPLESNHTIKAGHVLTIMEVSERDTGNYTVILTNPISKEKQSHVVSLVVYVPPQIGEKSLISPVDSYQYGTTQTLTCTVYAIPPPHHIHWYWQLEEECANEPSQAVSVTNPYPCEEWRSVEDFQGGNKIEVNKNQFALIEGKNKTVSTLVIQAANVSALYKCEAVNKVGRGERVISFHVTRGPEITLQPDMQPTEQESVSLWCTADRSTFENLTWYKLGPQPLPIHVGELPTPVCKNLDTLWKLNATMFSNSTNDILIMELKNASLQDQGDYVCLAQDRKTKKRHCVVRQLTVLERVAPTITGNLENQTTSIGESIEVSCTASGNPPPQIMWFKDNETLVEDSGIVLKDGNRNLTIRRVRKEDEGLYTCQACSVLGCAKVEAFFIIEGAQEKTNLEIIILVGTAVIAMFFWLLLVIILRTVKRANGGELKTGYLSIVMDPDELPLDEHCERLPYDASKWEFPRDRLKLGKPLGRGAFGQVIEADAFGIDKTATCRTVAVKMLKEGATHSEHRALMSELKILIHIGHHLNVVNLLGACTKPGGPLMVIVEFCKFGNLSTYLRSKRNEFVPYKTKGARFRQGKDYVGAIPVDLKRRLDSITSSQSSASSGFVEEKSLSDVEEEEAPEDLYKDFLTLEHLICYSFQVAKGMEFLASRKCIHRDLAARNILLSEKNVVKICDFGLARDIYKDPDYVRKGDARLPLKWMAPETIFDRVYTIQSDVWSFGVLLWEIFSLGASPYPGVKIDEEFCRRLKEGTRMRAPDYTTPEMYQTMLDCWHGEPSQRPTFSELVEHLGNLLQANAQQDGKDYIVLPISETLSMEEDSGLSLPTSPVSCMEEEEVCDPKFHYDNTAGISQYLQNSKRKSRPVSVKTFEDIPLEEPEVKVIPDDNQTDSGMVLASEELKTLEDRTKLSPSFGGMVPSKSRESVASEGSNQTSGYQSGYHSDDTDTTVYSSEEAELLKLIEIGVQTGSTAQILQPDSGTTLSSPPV
Experimental: (§1) Transfection of HEK293T cells and Ba/F3 cells with VEGFR-1-Flag, VEGFR-2-Flag or VEGFR-3-Flag expression constructs was performed using Fugene-6 (Roche) as per manufacturer’s protocol. Briefly, Fugene-6 was pre-incubated with Opti-Mem (Gibco) before adding DNA. After 24 h, media was replaced with serum-free culture media containing 0.2 % BSA. On the next day, cells were incubated for 1 h in 1 mM orthovanadate, harvested, dissociated and distributed at 4 x 10^5 cells in 5 mL for HEK-VEGFR-1 and HEK-VEGFR-3, and 5 x 10^4 cells per 5 mL for HEK VEGFR-2 in the presence of EVT801 or SAR401849. After 30 min, the reaction was stopped by the addition of cold PBS supplemented with 1 mM orthovanadate. Cells were then lysed with 150 μl of RIPA buffer for 15 min at 4°C, then centrifuged for 10 min at 10,000 g. Supernatants (75 μl) were distributed in duplicate on 96 well plates that were precoated with the anti-flag, and left for 1 h at room temperature. After 3 washes, the anti-phosphotyrosine conjugated to the HRP was added and incubated for 1 h at room temperature. Wells were then washed 3 times with TBS buffer containing 0.5 % Tween-20 and 2 mM MgCl2. The reaction was stopped with 50 μL of 2 N H2SO4, and the signal was read with Envision at the wavelengths of 485 nm and 530 nm.

VEGFR-3 [2] = biological target: T1, VEGFR-3 (Homo sapiens, UniProt P35916); test: Cellular autophosphorylation assay, HEK293 cells transiently expressing VEGFR-3; assay type: cell-based; design: expressed in transfected cells; host or cells: HEK293T; settings: read-out: IC50 in cellular assays, VEGFR-3 autophosphorylation
Experimental: as §1
Target sequence in this assay (P35916 25-1363): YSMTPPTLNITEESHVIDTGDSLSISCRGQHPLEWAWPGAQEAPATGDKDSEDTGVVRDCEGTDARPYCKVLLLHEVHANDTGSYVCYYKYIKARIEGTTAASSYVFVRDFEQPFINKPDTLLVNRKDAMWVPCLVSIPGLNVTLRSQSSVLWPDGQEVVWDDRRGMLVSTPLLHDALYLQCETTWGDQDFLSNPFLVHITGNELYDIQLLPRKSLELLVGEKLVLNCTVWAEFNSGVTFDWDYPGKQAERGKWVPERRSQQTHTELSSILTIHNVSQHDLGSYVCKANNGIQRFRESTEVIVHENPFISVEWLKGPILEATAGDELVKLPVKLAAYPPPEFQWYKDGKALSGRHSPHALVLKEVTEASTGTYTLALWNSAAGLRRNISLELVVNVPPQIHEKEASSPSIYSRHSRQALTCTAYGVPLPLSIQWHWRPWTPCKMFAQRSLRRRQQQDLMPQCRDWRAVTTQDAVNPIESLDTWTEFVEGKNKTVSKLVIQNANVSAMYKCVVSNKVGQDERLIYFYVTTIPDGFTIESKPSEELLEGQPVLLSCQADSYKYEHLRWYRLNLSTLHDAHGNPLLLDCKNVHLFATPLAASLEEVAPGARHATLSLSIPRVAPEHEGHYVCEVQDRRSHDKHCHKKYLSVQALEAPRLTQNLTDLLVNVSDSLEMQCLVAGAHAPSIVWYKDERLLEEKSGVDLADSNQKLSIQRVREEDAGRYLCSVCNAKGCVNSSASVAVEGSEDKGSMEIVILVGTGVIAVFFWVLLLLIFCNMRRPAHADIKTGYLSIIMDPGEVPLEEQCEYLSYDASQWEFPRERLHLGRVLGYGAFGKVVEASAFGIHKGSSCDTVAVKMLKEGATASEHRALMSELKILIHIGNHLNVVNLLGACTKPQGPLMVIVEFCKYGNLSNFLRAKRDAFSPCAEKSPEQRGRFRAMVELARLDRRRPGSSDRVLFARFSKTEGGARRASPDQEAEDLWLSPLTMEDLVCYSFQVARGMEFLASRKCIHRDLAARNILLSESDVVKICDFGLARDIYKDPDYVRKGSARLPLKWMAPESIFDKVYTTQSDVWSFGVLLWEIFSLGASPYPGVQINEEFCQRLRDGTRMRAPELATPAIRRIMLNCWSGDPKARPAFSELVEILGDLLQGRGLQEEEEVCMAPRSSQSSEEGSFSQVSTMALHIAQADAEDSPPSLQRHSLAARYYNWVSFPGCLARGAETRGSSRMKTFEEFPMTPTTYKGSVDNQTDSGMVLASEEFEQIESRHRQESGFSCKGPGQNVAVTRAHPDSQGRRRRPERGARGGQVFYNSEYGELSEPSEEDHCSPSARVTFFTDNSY

ERK1/2 phosphorylation = test: VEGF-C-induced ERK1/2 phosphorylation in hLMVEC; assay type: cell-based; settings: Homo sapiens, read-out: IC50, inhibition of VEGF-C-induced ERK1/2 phosphorylation
Experimental: hLMVECs were plated in 6-well tissue culture plates at a density of 2 x 10^5 cells for 48 h. Cells were then serum deprived for 2 h and either stimulated or mock stimulated for 10 min with VEGFC (500 ng/mL) in the presence or absence of EVT801. Then, cells were lysed and subjected to phospho-MAPK array or to phospho-ERK ELISA according to manufacturer’s instructions.

CT26 tumors = test: CT26 ectopic tumor mouse model; assay type: in vivo, mice
Experimental: BALB/c mice were anesthetized with ketamine (100 mg/kg) combined with xylazine (10 mg/kg) via intraperitoneal injection. A total of 5 × 10^4 CT26 tumor cells were suspended in 200 μL of Matrigel matrix, and then inoculated in the flank of legs. After implantation, mice were randomly separated into two groups. One group received EVT801 by oral gavage and anti-PD-1 by intraperitoneal injection in a volume of 10 mL/kg, whereas the mice in the second group served as control, and were injected with IgG isotype. PD-1 was injected at day 11, day 14, and day 18 after CT26 inoculation. EVT801 was administrated daily by oral route at 30 mg/kg from day 11 until day 21. Tumor volume was measured on days 11, 13, 15, 18, 19 and 21 following tumor cell injection. The selected groups received vehicle or EVT801 orally in a volume of 10 mL/kg. At day 21, 60 mg/kg hypoxyprobe was injected 30 minutes before sacrifice of mice. The tumors were embedded in paraffin for histology studies.

VEGFR-3 [3] = biological target: T1, VEGFR-3; test: Viability of Ba/F3 cells dependent on VEGFR-3; assay type: cell-based; design: fusion proteins consisting of constructs for IL-3 independent survival and either VEGFR-2 or VEGFR-3 kinase domains; expressed in transfected cells; host or cells: Ba/F3 (stably transduced)
Experimental: Ba/F3 cells were transduced and selected to stably express fusion proteins consisting of constructs for IL-3 independent survival and either VEGFR-2 or VEGFR-3 kinase domains or without the kinase domain. Proliferation and survival of cell lines was dependent on expression of the transcript. Cells in logarithmic-phase growth were harvested and 5 x 10^3 cells were distributed into each well of a 384-well plate in 50 µL of medium. Then, 50 nL of EVT801, SAR401849 or their vehicle solvent were added to appropriate wells. After 48 h, viability was determined by addition of 10 µL CellTiterGlo reagent (Promega). Luminescence was determined as relative light units (RLU) in counts per second.
Target sequence in this assay (P35916 845-1173 limits assumed, species assumed): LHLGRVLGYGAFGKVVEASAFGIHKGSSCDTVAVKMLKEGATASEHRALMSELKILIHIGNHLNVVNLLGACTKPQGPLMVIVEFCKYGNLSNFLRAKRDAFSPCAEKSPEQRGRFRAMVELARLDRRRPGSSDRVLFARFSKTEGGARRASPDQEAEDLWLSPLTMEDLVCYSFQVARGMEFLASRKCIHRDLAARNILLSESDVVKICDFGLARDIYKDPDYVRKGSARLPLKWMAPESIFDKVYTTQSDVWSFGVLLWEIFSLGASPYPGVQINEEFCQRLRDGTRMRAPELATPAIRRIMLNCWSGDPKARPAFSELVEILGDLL

VEGFR-3 [4] = biological target: T2, VEGFR-3 (Mus musculus, UniProt P35917); test: Cellular VEGFR-3 autophosphorylation assay, mouse receptor; assay type: cell-based; settings: read-out: IC50 in cellular assays, VEGFR-3 autophosphorylation, mouse receptor
T2 construct: expressed in transfected cells; host or cells: HEK293T (inferred from the general description of the cellular assay)
T2 sequence (P35917 25-1363): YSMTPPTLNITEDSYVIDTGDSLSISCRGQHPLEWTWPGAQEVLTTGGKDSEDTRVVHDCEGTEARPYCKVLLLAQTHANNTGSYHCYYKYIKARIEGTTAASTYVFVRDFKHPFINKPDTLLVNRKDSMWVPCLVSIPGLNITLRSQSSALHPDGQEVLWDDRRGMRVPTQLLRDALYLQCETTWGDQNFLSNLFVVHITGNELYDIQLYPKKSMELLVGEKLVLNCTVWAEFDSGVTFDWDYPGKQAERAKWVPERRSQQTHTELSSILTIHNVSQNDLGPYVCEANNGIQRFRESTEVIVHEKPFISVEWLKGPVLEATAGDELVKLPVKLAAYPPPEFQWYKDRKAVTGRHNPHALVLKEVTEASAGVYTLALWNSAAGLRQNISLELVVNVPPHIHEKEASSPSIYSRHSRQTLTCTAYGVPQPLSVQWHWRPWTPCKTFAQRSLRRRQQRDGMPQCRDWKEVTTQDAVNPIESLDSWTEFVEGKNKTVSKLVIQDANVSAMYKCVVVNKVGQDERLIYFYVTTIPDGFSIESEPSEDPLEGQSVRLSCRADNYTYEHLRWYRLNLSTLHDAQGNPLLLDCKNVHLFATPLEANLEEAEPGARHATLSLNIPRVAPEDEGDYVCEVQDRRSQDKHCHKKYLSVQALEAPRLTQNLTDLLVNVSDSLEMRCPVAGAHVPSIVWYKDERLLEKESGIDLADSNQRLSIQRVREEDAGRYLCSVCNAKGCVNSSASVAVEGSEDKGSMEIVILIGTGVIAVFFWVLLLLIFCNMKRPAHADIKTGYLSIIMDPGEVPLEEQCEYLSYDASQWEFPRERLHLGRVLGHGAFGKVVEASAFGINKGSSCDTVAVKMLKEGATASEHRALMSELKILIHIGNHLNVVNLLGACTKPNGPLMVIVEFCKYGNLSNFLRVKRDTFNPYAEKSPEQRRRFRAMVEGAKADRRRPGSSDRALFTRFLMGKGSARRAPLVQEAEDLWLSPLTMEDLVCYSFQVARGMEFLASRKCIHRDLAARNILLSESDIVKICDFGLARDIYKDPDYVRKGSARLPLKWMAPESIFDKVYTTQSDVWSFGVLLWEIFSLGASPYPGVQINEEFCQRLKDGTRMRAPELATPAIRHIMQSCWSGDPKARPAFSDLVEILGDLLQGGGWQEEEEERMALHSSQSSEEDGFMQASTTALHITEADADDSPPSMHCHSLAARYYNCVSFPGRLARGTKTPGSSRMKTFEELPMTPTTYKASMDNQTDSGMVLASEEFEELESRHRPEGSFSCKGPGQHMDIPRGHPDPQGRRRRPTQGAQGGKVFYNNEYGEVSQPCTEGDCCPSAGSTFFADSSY
Experimental: as §1

CCn1c(N)c(-c2ncc[nH]2)c(=O)c2ccc(C#C[C@@](C)(O)COC)nc21 [EVT801]
effect on blood pressure [1]: did not increase blood pressure | T/C ratio, tumor volume (Rip1-Tag2 tumors; 30 mg/kg/day, 2 weeks): 63% | average number of tumors per pancreas (Rip1-Tag2 tumors; 30 mg/kg/day, 2 weeks): three | reduction in tumor volume (Rip1-Tag2 tumors; 30 mg/kg/day, 2 weeks): 37% | reduction of number of pancreatic tumors (Rip1-Tag2 tumors; 30 mg/kg/day, 2 weeks): 67% | T/C ratio, tumor volume (Rip1-Tag2 tumors; 100 mg/kg/day, 2 weeks): 16% | reduction of number of pancreatic tumors (Rip1-Tag2 tumors; 100 mg/kg/day, 2 weeks): 91% | overall survival of the mice (Rip1-Tag2 tumors; 30 and 100 mg/kg/day): dose-dependently increased | IC50 (VEGFR-2): 260 nM | IC50 (VEGFR-3 [2]): 39 nM | IC50 (ERK1/2 phosphorylation): 13 nM | T/C ratio, tumor volume (CT26 tumors; BALB/c mice, EVT801 30 mg/kg twice per day, anti-PD-1 twice per week, or both): 55% | reduction of hypoxyprobe-positive areas compared with vehicle (CT26 tumors; end of treatment, not statistically significant): 42% | IC50 (VEGFR-3 [3]): 24 nM | IC50 (VEGFR-3 [4]): 151 nM
